Source: patent US7625887B2, “Receptor agonists” (Takeda Pharmaceutical Company Limited, priority 2003, dated 2009)

What was measured:
NCI-H716 cells = test: GLP-1 secretion from NCI-H716 cell line; type: cell-based, human; conditions: bile acid 25 μM, 2 hrs; secretion amount in Base was 100%
Procedure: NCI-H716 cells secrete Glucagon-like peptide-1 (GLP-1). GLP-1 is a peptide useful for controlling blood glucose level because it acts on the pancreas to cause secretion of insulin and the like. In the same manner as in Experimental Example 9, NCI-H716 (ATCC) was seeded in a 96 well plate and, after incubation for 2 days, used for the following secretion test. As a buffer for secretion test, modified Krebs-Ringer bicarbonate buffer (KRBH, 116 mM NaCl, 4.7 mM KCl, 1.2 mM KH2PO4, 1.2 mM MgSO4, 2.5 mM CaCl2, 25 mM NaHCO3, 24 mM HEPES, pH 7.3) supplemented with glucose 5.5 mM and BSA 0.1% was used. The cells were washed once with the buffer for secretion test, preincubated at 37° C. under 5% CO2, bile acid diluted with the buffer for secretion test was added and the cells were cultured at 37° C. under 5% CO2 for 2 hrs. The cell culture supernatant was collected, cryopreserved and the GLP-1 content in the supernatant was measured using a GLP-1 measurement EIA kit (Linco) The results are shown in Table 9. In the Table, Base means non-addition of a test compound.

THP-TGR5 cells = test: suppression of LPS induced TNF α secretion in THP-TGR5 cells; type: cell-based, human; conditions: bile acid 50 μM, non-addition: 11 with LPS, 2.7 without LPS
Procedure: TGR5 high expression cells were established by introducing TGR5 gene into human macrophage cells line THP-1. According to a conventional method, pcDNA-TGR5 incorporating cDNA of human TGR5 in pcDNA3.1 (Invitrogen) was prepared. Then, THP-1 was cultured in a medium (RPMI1640 10% FBS), and pcDNA-TGR5 was introduced thereinto using lipofectamine (Gibco BRL) according to conventional methods. Thereafter, G418 (Gibco BRL) was added to the medium to select resistant strains, and cells line, THP-TGR5 that expresses TGR5 stably and highly was established.
THP-TGR5 thus obtained was diluted to a concentration of 1×10^5/well and cultured overnight in a 96 well plate in the presence of 10^−8M phorbol ester (Wako Pure Chemical Industries, Ltd.). THP-TGR5 after culture was cultured for 1 hr in a medium containing a test compound or a control medium (0.1 ml) free of a test compound, 0.1 ml of a medium containing the same concentration of the test compound or a control medium free of the test compound, each of which containing LPS for induction of TNF α secretion was added (concentration at the time of addition 50 ng/ml) and the mixture was incubated at 37° C. under 5% CO2 for 14 hrs. The culture supernatant was collected and the TNF α content was measured with the growth suppressing effect on the TNF sensitive cell line L929 (RIKEN Institute) as an index.
L929 cells were seeded in a 96 well plate at 1.2×10^4/well and incubated overnight at 37° C. under 5% CO2. The obtained culture product was cultured overnight in a medium (phenol red free Dulbecco's Modified Eagle Medium (Invitrogen) supplemented with 10% fetal bovine serum (Invitrogen), 100 U/ml penicillin and 100 μg/ml streptomycin), which contained the aforementioned THP-TGR5-containing culture supernatant and 2 μg/ml Actinomycin D (Wako Pure Chemical Industries, Ltd.). The TNF α content was determined by measuring the growth of the L929 cells in the obtained culture product using a Cell Counting Kit-8 (Wako Pure Chemical Industries, Ltd.). As the standard sample, human recombinant TNF α (Genzyme) was used.

C[C@H](CCC(=O)NCCS(=O)(=O)O)[C@H]1CC[C@H]2[C@@H]3CC[C@@H]4C[C@H](O)CC[C@]4(C)[C@H]3CC[C@]12C [TLCA, taurolithocholic acid, reference compound]
GLP-1 secretion increase (%) (NCI-H716 cells): 124% | TNF α (THP-TGR5 cells): 0.22 ng/mL
